Data set [1] concerns Toxoplasma gondii tachyzoites (strain RH, type I). As to the kind of experiment: Screening at 10 μM: T. gondii parasite growth inhibition in Vero cells (enzyme immunoassay). It counts as cell-based. To be noted: for inhibition at 10 µM / parasite growth inhibition: 72 h, triplicate, 10 μM. The method, then: (§1) All the experiments were performed in triplicate. Compound screening was performed at 10 μM in 96-well plates. Thus, 20,000 Vero cells contained in 200 μL of culture medium were filled in each well and left to adhere for 4 h at 37 °C and 5% of CO2. Then, 50,000 parasites contained in 50 μL of culture medium were filled, followed by 3 h of incubation in the same conditions. Wells were then emptied and 100 μL of solutions containing each drug at a final concentration of 10 μM were added. Incubation continued for 72 h.
(§2) The IC50 assays were processed in the same conditions as previously described. Dilutions were performed in a culture medium. The IC50 was determined using an adapted protocol from Doliwa et al.. Parasites and cells were first fixed with 100 μL of cold methanol for 5 min at −20 °C. Cells were then rehydrated with 100 μL of PBS at room temperature. Wells were then emptied and filled with 60 μL of a solution of anti-T. gondii rabbit antibody (Ref. 9070-0556, Biorad) diluted at 1/1000. After 1 hour of incubation at 37 °C, wells were washed three times with PBS, and 60 μL of anti-rabbit IgG horseradish conjugated goat antibody (Ref. 170-6515, Bio-Rad) at 1/1000 were added, followed by 1 h of incubation at 37 °C. The wells were washed three more times, and 200 μL of a solution of o-phenylenediamine dihydrochloride (Sigma, France) was added. After 15 min at room temperature, the enzymatic reaction was stopped by the addition of 50 μL of hydrochloric acid (HCl) 3 M. To finish, 200 μL of each well were transferred to a new well and a spectrophotometer reading was performed at 492 nm, corrected at 630 nm. Each experiment was performed with three controls: control with host cells alone, control with host cells and parasites without the drug for parasite multiplication, and control with host cells with parasites and pyrimethamine at 1 μM.

The test system is the same in data set [2]. As to the kind of experiment: Half maximal inhibitory concentration (IC50) on T. gondii (enzyme immunoassay). In kind it is cell-based. To be noted: for Selectivity index (SI): SI = CC50/IC50 (Vero cells / T. gondii); for IC50: Toxoplasma gondii, T. gondii RH in Vero cells, 72 h. Here is the method:
as §1, §2

Data set [3] is described as follows: Cytotoxicity evaluation, Uptiblue viable cell-counting assay. The note with it: African green monkey. The method, then: (§3) Vero cells (host cells of T. gondii tachyzoite) were purchased at ATCC (reference CCL-81), grown in Iscove Modified Dulbecco Media (IMDM) GlutaMAX medium (Gibco) supplemented with 5% decomplemented fetal calf serum with 1% penicillin/streptomycin. The culture was incubated at 37 °C and 5% CO2. Toxoplasma gondii tachyzoites (strain RH, type I) were grown in the same conditions as Vero cells except that the concentration of fetal calf serum was 2%.
(§4) The in vitro cytotoxicity was evaluated on Vero cell cultures using Uptiblue® viable cell-counting assay (Interchim, Montluçon, France). CC50 assays were performed in 96-well plates containing 20,000 Vero cells and 200 μL of culture medium identical to the one used for Vero cell maintenance. After 4 h of incubation, wells were emptied. The IC50 was performed with 100 μL of solutions containing the tested compounds with a final concentration range of 0–80 μM. After 72 h of incubation, wells were washed with 100 μL of phosphate-buffered saline (PBS) (Sigma-Aldrich, Saint-Quentin-Fallavier, France). Then, 100 μL of IMDM culture medium supplemented with 2% (v/v) of calf fetal serum and 10% (v/v) of Uptiblue® were added to each well. Plates were placed at 37 °C and 5% of CO2 for 3 h. Spectrophotometric measures were performed at 570 nm and corrected at 600 nm on an AMR-100 spectrophotometer (AllSheng, Hangzhou, China).

The test system of another data set is L. donovani. On the set-up: method as in earlier work. To be noted: 50 μM; cited from earlier work.
Data set [4] has as its system Vero cells. To be noted: cited from earlier work.
Data set [5] has as its system Plasmodium falciparum K1 strain. On the set-up: method as in PMID 21438586. To be noted: cited from earlier work.
For data set [6], the system named is Vero cells. The data set can be described thus: Cytotoxicity evaluation, Uptiblue viable cell-counting assay. Here is the method:
as §3, §4

The next data set in a line: Solubility in DMSO. It counts as physicochemical. The method, then:
Stock solutions at 1 mg/mL were prepared in cell culture grade dimethyl sulfoxide (DMSO, PanReac AppliChem, Darmstadt, Germany). Subsequent dilutions were made in a culture medium identical to the one used for tachyzoite maintenance.

Data set [7] deals with T. gondii. On the set-up: method as in PMID 20441162. The note with it: cited from earlier work.
The subject of data set [8] is Vero cells. Also noted: method as in PMID 20441162. To be noted: cited from earlier work.
Data set [9] concerns T. gondii. On the set-up: method as in PMID 23776166. To be noted: in vitro growth of T. gondii; cited from earlier work.
The next data set has as its system P. falciparum. On the set-up: method as in PMID 11239932. To be noted: P. falciparum growth; cited from earlier work.

Consider `C=C(C)[C@@H]1CC[C@]2(CO)CC[C@]3(C)[C@H](CC[C@@H]4[C@@]5(C)CC[C@H](O)C(C)(C)[C@@H]5CC[C@]43C)[C@@H]12` [Betulin (1), betulin], for which, in data set [1] (Toxoplasma gondii, Vero), the inhibition (as a rule, the share of the control response that was lost under treatment) at 10 µM is 44%. In data set [2], the “Selectivity index (SI)” value is listed as greater than 6.0 and half-maximal inhibition (IC50) required 13.3 ± 7.3 µM. Moreover, the CC50 at 72 h in data set [3] was greater than 80 µM. Further, in the data set with L. donovani, the “inhibition of L. donovani” value is 35.0%. For the same compound, the CC50 in the data set on Vero cells [4] is 164 µM.

In turn, `C=C(C)[C@@H]1CC[C@]2(C=O)CC[C@]3(C)[C@H](CC[C@@H]4[C@@]5(C)CC[C@H](O)C(C)(C)[C@@H]5CC[C@]43C)[C@@H]12` [Betulinaldehyde (2), betulinaldehyde] yielded an inhibition at 10 µM in data set [1] (Toxoplasma gondii, Vero) of 93%. In data set [2], the “Selectivity index (SI)” value was greater than 15.7 and inhibition was half-maximal at 5.1 ± 0.6 µM (IC50). The same compound showed a CC50 at 72 h in [3] (Vero cells (ATCC CCL-81)) greater than 80 µM.

`C=C(C)[C@@H]1CC[C@]2(C(=O)O)CC[C@]3(C)[C@H](CC[C@@H]4[C@@]5(C)CC[C@H](O)C(C)(C)[C@@H]5CC[C@]43C)[C@@H]12` [Betulinic acid (3), betulinic acid]: in data set [1] (Toxoplasma gondii, Vero), the inhibition at 10 µM came out at 49%. For the same compound, in [2], the “Selectivity index (SI)” value is listed as greater than 9.6 and half-maximal inhibition (IC50) was put at 8.3 ± 2.7 µM. For the same compound, the CC50 at 72 h in data set [3] was greater than 80 µM. Besides, the “inhibition of L. donovani” value in the data set on L. donovani is given as 39.8%.

Take `C=C(C)[C@@H]1CC[C@]2(CO)CC[C@]3(C)[C@H](CC[C@@H]4[C@@]5(C)CCC(=O)C(C)(C)[C@@H]5CC[C@]43C)[C@@H]12` [Betulone (4), betulone]: 10 µM produced 99% inhibition in [1] (Toxoplasma gondii, Vero). Besides, the results for the “Selectivity index (SI)” value in data set [2] and in data set [2] (listed as betulone) were greater than 29.6 and “greater than 29”, respectively. Moreover, the IC50 (in general, the midpoint of a concentration-inhibition curve) in data set [2] is 2.7 ± 1.2 µM; in [5], 3 µM. The CC50 at 72 h in [3] is greater than 80 µM.

For the compound `C=C(C)C1CCC2(C(=O)O)CCC3(C)C(CCC4C5(C)CCC(=O)C(C)(C)C5CCC43C)C12` (stereo not drawn) [Betulonic acid (7), Betulonic acid], in data set [2], the “Selectivity index (SI)” value is greater than 18.6 and half-maximal inhibition (IC50) required 4.3 ± 1.4 µM. This compound also yielded a CC50 at 72 h in [3] (Vero cells (ATCC CCL-81)) greater than 80 µM. In the data set with Vero cells [6] (80 μM on Vero cells), the cytotoxicity entry is given as “without cytotoxicity”. In the data set with L. donovani, the “inhibition of L. donovani” value is on record as 97.6%.

For `C=C(C)C1CCC2(C(=O)OC)CCC3(C)C(CCC4C5(C)CCC(=O)C(C)(C)C5CCC43C)C12` (stereo not drawn) [Betulonic acid methyl ester (8), betulonic acid methyl ester], in data set [2], the “Selectivity index (SI)” value is recorded as greater than 25.8 and half-maximal inhibition (IC50) required 3.1 ± 0.4 µM. In data set [3], this compound showed a CC50 at 72 h greater than 80 µM.

As for `C=C(C)[C@@H]1CC[C@]2(C)CC[C@]3(C)[C@H](CC[C@@H]4[C@@]5(C)CCC(=O)C(C)(C)[C@@H]5CC[C@]43C)[C@@H]12` [Lupenone, lupenone], the “solubility in DMSO” value in the data set “Solubility in DMSO” was “not soluble in DMSO”.

Take `C=C(C)[C@@H]1CC[C@]2(C)CC[C@]3(C)[C@H](CC[C@@H]4[C@@]5(C)CC[C@H](O)C(C)(C)[C@@H]5CC[C@]43C)[C@@H]12` [Lupeol (5), lupeol]: testing at 10 µM in data set [1] (Toxoplasma gondii, Vero) gave an inhibition of 60%. In [2], the “Selectivity index (SI)” value was greater than 5.8 and the IC50 came to 13.8 ± 4 µM. Further, the CC50 at 72 h in data set [3] (Vero cells (ATCC CCL-81)) is greater than 80 µM.

On to `CCc1nc(N)nc(N)c1-c1ccc(Cl)cc1` [Pyrimethamine (10), pyrimethamine, reference compound], for which the inhibition at 1 µM in data set [1] (Toxoplasma gondii, Vero, 1 μM) turned out to be 78%. Further, in [2], the “Selectivity index (SI)” value was determined as 38.0 and the IC50 stood at 0.7 ± 0.2 µM. The compound also displayed a CC50 at 72 h in data set [3] (Vero cells (ATCC CCL-81)) of 27.7 µM. Also, in the data set on Vero cells [6] (10 μM), the cytotoxicity entry was “cytotoxic”.

`CC1(C)CC[C@]2(C(=O)O)CC[C@]3(C)C(=CC[C@@H]4[C@@]5(C)C[C@@H](O)[C@H](O)C(C)(C)[C@@H]5CC[C@]43C)[C@@H]2C1` [maslinic acid]: the LD50 was 53.8 µM in the data set with T. gondii [7] and 236.6 µM with Vero cells [8].

For the compound `Oc1cc(Cl)ccc1Oc1ccc(Cl)cc1Cl` [triclosan], the IC50 in the data set with T. gondii [9] is 3 µM; in the data set on P. falciparum, 1 µM.

Take β-sitostenone [β-sitostenone (9)]: the parasite growth inhibition result is reported as “did not show any relevant activity” in [1] and “no specific activity” in [1] (listed as β-sitostenone).

The record behind these values is article PMC8830292, “Anti-Toxoplasma gondii effect of lupane-type triterpenes from the bark of black alder (Alnus glutinosa) and identification of a potential target by reverse docking” (Parasite, 2022).
